Data set [1] can be described thus: LLNA test for skin sensitization (OECD Guideline 429). In kind it is in vivo. Particulars: OECD Guideline 429, suitable vehicle, for example acetone:olive oil (4+1). The source says: We further submitted the same samples to a LLNA screening, in order to assess the potential skin sensitization properties of the product.
The Local Lymph Node Assay (LLNA) is an alternative to the guinea pig sensitization test which is employed by the pharmaceutical, chemical, consumer product and cosmetic industries to identify and characterize substances with immunotoxic properties.
Solvent Orange 63 as prepared above was subjected to LLNA test for skin sensitization, according to OECD Guideline 429 in suitable vehicle, for example acetone:olive oil (4+1).

Data set [2] has as its system Salmonella typhimurium Strain TA98. As to the kind of experiment: Ames test for mutagenity (OECD 471). The data set is classed as cell-based. The source says: Due to the availability of different grades of Solvent Orange 63 for the corrosion tests, we decided to submit them all to an Ames test, one of several genotoxicity assays for the assessment of product safety.
The Ames test is a screening for the mutagenic effect of substances on microorganisms, cells and tissue cultures and therefore their potential carcinogenic effect. This relies on the observation that the most common cause of cancer is somatic mutations brought about by DNA damage. Chemicals that damage bacterial DNA, and induce mutations, are therefore likely to cause mutations in mammalian cells. Assay is done using bacteria, which gives fast and relatively cheap results and avoids the controversial tests on animals.
The strains used are among those recommended by OECD 471: Salmonella typhimurium and Escherichia coli.
Solvent Orange 63 as prepared above was subjected to Ames test for mutagenity. The strains used are among those recommended by OECD 471: Salmonella typhimurium and E. coli.
On the technique in general: In the Ames test, an excess of revertant colonies over the control signals mutagenicity.

Setting [3] is: in the presence of S9 mix (metabolic activation).

Take `O=c1c2ccccc2c2ccc3sc4ccccc4c4ccc1c2c34` [Solvent Orange 63 from Sample B, C.I. Solvent Orange 63]: the “skin sensitization (LLNA)” value in data set [1] was “not skin sensitizers”. In addition, in data set [2] (setting [3]), the “mutagenic to Salmonella typhimurium Strain TA98” value is reported as “not mutagenic”.
For `O=c1c2ccccc2c2ccc3sc4ccccc4c4ccc1c2c34` [Solvent Orange 63 from Sample A, C.I. Solvent Orange 63], in that order: “not skin sensitizers” and “not mutagenic”.
As to `O=c1c2ccccc2c2ccc3sc4ccccc4c4ccc1c2c34` [Solvent Orange 63 from Sample C, C.I. Solvent Orange 63], the “skin sensitization (LLNA)” value in data set [1] was “skin sensitizers”. In data set [2] (setting [3]), the “mutagenic to Salmonella typhimurium Strain TA98” value is listed as “not mutagenic”.
Turning to `O=c1c2ccccc2c2ccc3sc4ccccc4c4ccc1c2c34` [Solvent Orange 63 from Sample D, C.I. Solvent Orange 63], the “skin sensitization (LLNA)” value in data set [1] is “skin sensitizers”. Further, the “mutagenic to Salmonella typhimurium Strain TA98” value in data set [2] (with or without liver microsomal activation (S9 mix)) is “mutagenic”.

(Values after US20090255440A1, “Benzothioxanthene dyes with improved application and toxicological properties” (Clariant International Ltd., priority 2008, published 2009).)
